The record followed here is patent publication US9770438B2, “Clonidine formulation in a polyorthoester carrier” (Medtronic, Inc., priority 2008, dated 2017).

Experiment [1] relates to Rat Chronic Constriction Injury Model (Bennett Model) of neuropathic pain. Particulars: subcutaneously 0.02 mg/kg/day; compared to unloaded polyorthoester depot (POE Control); days 8-64; FIG. 4.
Description: (§1) A 2-month chronic constriction injury (CCI) model of neuropathic pain was used to evaluate a formulation of clonidine encapsulated in a POE polymer, a POE control polymer and clonidine given subcutaneously (SC).
(§2) The inventors evaluated the efficacy of a five month Clonidine/Polyorthoester Drug Depot in the Rat Chronic Constriction Injury Model. The animal model was the Bennett Model (Wistar rat). The purpose: to determine whether a five month polyorthoester clonidine-eluting depot can improve pain associated behavioral responses in a rat model of neuropathic pain.
(§3) Experimental Design: Four loose chromic gut ligatures, 1 mm apart, were tied around the common sciatic nerve at mid-thigh. Each animal received treatment of test or a controlled article according to the dosing described in Table 2.
(§4) The inventors have conducted the present study for a period of 64 days and have employed the following two tests: (1) the Hargreaves test; and (2) the von Frey test. The Hargreaves Tests of Thermal Hyperalgesia were conducted on days 7, 14, 21, 28, 35, 42, 49, 56 and 63. The von Frey monofilament test of mechanical allodynia (performed the day following thermal testing) were conducted on days 8, 15, 22, 29, 36, 43, 50, 57 and 64.
Experiment [2] shares this test system. Particulars: subcutaneously 0.02 mg/kg/day; compared to unloaded polyorthoester depot (POE Control); days 7-63; FIG. 3.
Description: as §1, §2, §3, §4

Each structure is given as a SMILES string.

Turning to `Clc1cccc(Cl)c1N=C1NCCN1` [clonidine, 2,6-dichloro-N-2-imidazolidinyldenebenzenamine], in experiment [1], the “pain behavioral response (percentage of baseline) for mechanical allodynia” value was “reduced the behavioral response”. Besides, the “pain behavioral response (percentage of baseline) for thermal hyperalgesia” value in experiment [2] is on record as “consistently reduced the behavioral response”.
